Assays:
[1] = system: Escherichia coli; experiment: AST with and without RNase, rRNA levels relative to control at 60 or 90 minutes; assay type: cell-based; conditions: susceptible E. coli isolates, 60 or 90 minutes at 37° C., RNase added to the growth medium
Protocol: Similar results have been observed for other Gram-negative bacteria such as Kiebsiella pneumoniae, Proteus mirabilis, and Pseudomonas aeruginosa using the same conditions and RNase concentrations as for E. coli.
Susceptible (S) and resistant (R) E. coli isolates were incubated in growth medium with ampicillin for 60 or 90 minutes at 37° C. with (+) and without (−) RNase.
Susceptible (S) and resistant (R) E. coli isolates were incubated in growth medium with cefazolin for 60 or 90 minutes at 37° C. with (+) and without (−) 1 μg/ml RNase.
Susceptible (S) and resistant (R) E. coli isolates were incubated in growth medium with ceftriaxone for 60 or 90 minutes at 37° C. with (+) and without (−) RNase.

[2] = system: K. pneumoniae; experiment: as above; assay type: cell-based; conditions: susceptible K. pneumoniae isolates, 60 or 90 minutes at 37° C., RNase added to the growth medium
Protocol: Susceptible (S) and resistant (R) K. pneumoniae isolates were incubated in growth medium with cefepime for 60 or 90 minutes at 37° C. with (+) and without (−) 1 μg/ml RNase.
Susceptible (S) and resistant (R) K. pneumoniae isolates were incubated in growth medium with ceftriaxone for 60 or 90 minutes at 37° C. with (+) and without (−) RNase.

Row | SMILES | rRNA levels relative to control (growth medium without antibiotic) [1] | rRNA levels relative to control (growth medium without antibiotic) [2]
1 | CC1(C)S[C@@H]2[C@H](NC(=O)[C@H](N)c3ccccc3)C(=O)N2[C@H]1C(=O)O [ampicillin] | significant reduction in rRNA | –
2 | Cc1nnc(SCC2=C(C(=O)O)N3C(=O)[C@@H](NC(=O)Cn4cnnn4)[C@H]3SC2)s1 [cefazolin] | significant reduction in rRNA | –
3 | CO/N=C(\C(=O)N[C@@H]1C(=O)N2C(C(=O)[O-])=C(C[N+]3(C)CCCC3)CS[C@H]12)c1csc(N)n1 [cefepime] | – | significant reduction in rRNA
4 | CO/N=C(\C(=O)N[C@@H]1C(=O)N2C(C(=O)O)=C(CSc3nc(=O)c(=O)[nH]n3C)CS[C@H]12)c1csc(N)n1 [ceftriaxone] | significant reduction in rRNA | significant reduction in rRNA

— patent publication US20240068008A1, “RNase for Improved Microbial Detection and Antimicrobial Susceptibility Testing” (MicrobeDX Inc., priority 2016, published 2024)
